Source: PubChem BioAssay (NCI)
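Briefly, cells in 96-well plates were exposed to five compound concentrations for 48 h, and endpoints were estimated by linear interpolation. At the GI50, growth is halved. The concentration for full growth arrest is given as TGI.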

How the values were obtained:
Experiment in all cases: DTP human tumour cell line panel, 48 h
HOP-62 NSCLC = test system: HOP-62 NSCLC
TK-10 renal = test system: TK-10 renal
UACC-62 melanoma = test system: UACC-62 melanoma
OVCAR-4 ovarian = test system: OVCAR-4 ovarian
OVCAR-3 ovarian = test system: OVCAR-3 ovarian
EKVX NSCLC = test system: EKVX NSCLC
NCI/ADR-RES ovarian = test system: NCI/ADR-RES ovarian
SW-620 colon = test system: SW-620 colon
COLO 205 colon = test system: COLO 205 colon
NCI-H23 lung = test system: NCI-H23 lung
K-562 leukemia = test system: K-562 leukemia
HT29 colon = test system: HT29 colon
OVCAR-8 ovarian = test system: OVCAR-8 ovarian
SK-MEL-5 melanoma = test system: SK-MEL-5 melanoma
SK-MEL-28 melanoma = test system: SK-MEL-28 melanoma
SK-OV-3 ovarian = test system: SK-OV-3 ovarian
MDA-MB-435 = test system: MDA-MB-435
SK-MEL-2 melanoma = test system: SK-MEL-2 melanoma
HCT-116 colon = test system: HCT-116 colon
U251 CNS = test system: U251 CNS
HOP-92 NSCLC = test system: HOP-92 NSCLC
UO-31 renal = test system: UO-31 renal
DU-145 prostate = test system: DU-145 prostate
ACHN renal = test system: ACHN renal
HCT-15 colon = test system: HCT-15 colon
MDA-N = test system: MDA-N
BT-549 breast = test system: BT-549 breast
SNB-19 CNS = test system: SNB-19 CNS
SNB-75 CNS = test system: SNB-75 CNS
SF-295 CNS = test system: SF-295 CNS
A498 renal = test system: A498 renal
T-47D breast = test system: T-47D breast
MCF7 breast = test system: MCF7 breast
CAKI-1 renal = test system: CAKI-1 renal
OVCAR-5 ovarian = test system: OVCAR-5 ovarian
NCI-H460 lung = test system: NCI-H460 lung
786-0 renal = test system: 786-0 renal
A549 NSCLC = test system: A549 NSCLC
SF-539 CNS = test system: SF-539 CNS
SN12C renal = test system: SN12C renal
IGROV1 ovarian = test system: IGROV1 ovarian
LOX IMVI melanoma = test system: LOX IMVI melanoma
RXF 393 renal = test system: RXF 393 renal
UACC-257 melanoma = test system: UACC-257 melanoma
SR leukemia = test system: SR leukemia
RPMI-8226 leukemia = test system: RPMI-8226 leukemia
PC-3 prostate = test system: PC-3 prostate
NCI-H522 lung = test system: NCI-H522 lung
KM12 colon = test system: KM12 colon
HS 578T breast = test system: HS 578T breast
SF-268 CNS = test system: SF-268 CNS
MDA-MB-231 breast = test system: MDA-MB-231 breast
M14 melanoma = test system: M14 melanoma
HCC-2998 colon = test system: HCC-2998 colon
HL-60(TB) leukemia = test system: HL-60(TB) leukemia
MOLT-4 leukemia = test system: MOLT-4 leukemia
CCRF-CEM leukemia = test system: CCRF-CEM leukemia

CC(=O)Oc1cc2c(cc1OC(C)=O)[C@H]1CC[C@]3(C)[C@@H](OC(C)=O)CC[C@H]3[C@@H]1CC2
GI50 (HOP-62 NSCLC): 4.81 µM | TGI (HOP-62 NSCLC): 26.7 µM | TGI (TK-10 renal): 20.8 µM | GI50 (UACC-62 melanoma): 2480 nM | TGI (UACC-62 melanoma): 13.1 µM | TGI (OVCAR-4 ovarian): 19.7 µM | TGI (OVCAR-3 ovarian): 7.88 µM | TGI (EKVX NSCLC): 9.64 µM | TGI (NCI/ADR-RES ovarian): 29.5 µM | TGI (SW-620 colon): 15.4 µM | TGI (COLO 205 colon): 15.5 µM | TGI (NCI-H23 lung): 22.9 µM | TGI (K-562 leukemia): 16.8 µM | TGI (HT29 colon): 19.3 µM | TGI (OVCAR-8 ovarian): 28 µM | TGI (SK-MEL-5 melanoma): 20.4 µM | TGI (SK-MEL-28 melanoma): 19.7 µM | TGI (SK-OV-3 ovarian): 21.7 µM | GI50 (MDA-MB-435): 316 nM | TGI (MDA-MB-435): 9.65 µM | TGI (SK-MEL-2 melanoma): 16.1 µM | GI50 (HCT-116 colon): 5.08 µM | TGI (HCT-116 colon): 18.5 µM | TGI (U251 CNS): 17.6 µM | TGI (HOP-92 NSCLC): 5.3 µM | TGI (UO-31 renal): 13 µM | TGI (DU-145 prostate): 38.9 µM | TGI (ACHN renal): 16.5 µM | TGI (HCT-15 colon): 15.4 µM | TGI (MDA-N): 16.5 µM | TGI (BT-549 breast): 11.2 µM | TGI (SNB-19 CNS): 21.7 µM | TGI (SNB-75 CNS): 4.42 µM | TGI (SF-295 CNS): 24.3 µM | TGI (A498 renal): 25.6 µM | TGI (T-47D breast): 22.2 µM | TGI (MCF7 breast): 20.9 µM | TGI (CAKI-1 renal): 12.5 µM | TGI (OVCAR-5 ovarian): 24.2 µM | TGI (NCI-H460 lung): 20.6 µM | TGI (786-0 renal): 18.9 µM | TGI (A549 NSCLC): 24.2 µM | GI50 (SF-539 CNS): 3.53 µM | TGI (SF-539 CNS): 15.9 µM | GI50 (SN12C renal): 5.06 µM | TGI (SN12C renal): 20.4 µM | TGI (IGROV1 ovarian): 19.1 µM | TGI (LOX IMVI melanoma): 16.6 µM | TGI (RXF 393 renal): 16.5 µM | TGI (UACC-257 melanoma): 22.4 µM | TGI (SR leukemia): 5.77 µM | TGI (RPMI-8226 leukemia): 8.43 µM | TGI (PC-3 prostate): 25.5 µM | TGI (NCI-H522 lung): 3.85 µM | TGI (KM12 colon): 23.4 µM | TGI (HS 578T breast): 25.2 µM | TGI (SF-268 CNS): 22.5 µM | TGI (MDA-MB-231 breast): 26.3 µM | TGI (M14 melanoma): 21.1 µM | TGI (HCC-2998 colon): 21.1 µM

O=C(O)c1ccc(C(c2c(O)c3ccccc3oc2=O)c2c(O)c3ccccc3oc2=O)cc1
TGI (HOP-62 NSCLC): > 100 µM | TGI (UACC-62 melanoma): > 100 µM | TGI (OVCAR-3 ovarian): > 100 µM | TGI (NCI/ADR-RES ovarian): > 100 µM | TGI (SW-620 colon): > 100 µM | TGI (COLO 205 colon): > 100 µM | TGI (NCI-H23 lung): > 100 µM | TGI (K-562 leukemia): > 100 µM | TGI (HT29 colon): > 100 µM | TGI (OVCAR-8 ovarian): > 100 µM | TGI (SK-MEL-5 melanoma): > 100 µM | TGI (HL-60(TB) leukemia): 129 nM | TGI (SK-MEL-28 melanoma): > 100 µM | TGI (MOLT-4 leukemia): > 100 µM | TGI (SK-OV-3 ovarian): > 100 µM | TGI (MDA-MB-435): > 100 µM | TGI (SK-MEL-2 melanoma): > 100 µM | TGI (HCT-116 colon): > 100 µM | TGI (U251 CNS): > 100 µM | TGI (CCRF-CEM leukemia): > 100 µM | TGI (HOP-92 NSCLC): 6.04 µM | TGI (UO-31 renal): > 100 µM | TGI (DU-145 prostate): > 100 µM | TGI (ACHN renal): > 100 µM | TGI (HCT-15 colon): > 100 µM | TGI (MDA-N): > 100 µM | TGI (BT-549 breast): > 100 µM | TGI (SNB-19 CNS): > 100 µM | TGI (SF-295 CNS): > 100 µM | TGI (A498 renal): > 100 µM | TGI (T-47D breast): > 100 µM | TGI (MCF7 breast): > 100 µM | TGI (CAKI-1 renal): > 100 µM | TGI (OVCAR-5 ovarian): > 100 µM | TGI (NCI-H460 lung): > 100 µM | TGI (786-0 renal): > 100 µM | TGI (A549 NSCLC): > 100 µM | TGI (SF-539 CNS): > 100 µM | TGI (SN12C renal): > 100 µM | TGI (LOX IMVI melanoma): > 100 µM | TGI (RXF 393 renal): > 100 µM | TGI (UACC-257 melanoma): > 100 µM | TGI (SR leukemia): > 100 µM | TGI (RPMI-8226 leukemia): > 100 µM | TGI (PC-3 prostate): > 100 µM | TGI (KM12 colon): > 100 µM | TGI (HS 578T breast): 62.7 µM | TGI (SF-268 CNS): > 100 µM | TGI (MDA-MB-231 breast): > 100 µM | TGI (M14 melanoma): > 100 µM | TGI (HCC-2998 colon): > 100 µM
